Tests used:
Format in all cases: in vivo
[1] = test system: Echinochloa crus-galli var. formosensis; experiment: Test Example 6: herbicidal effect test by application during growth period of paddy rice (low dose); conditions: Echinochloa crus-galli; 7.5 g per 10 ares; applied seven days after sowing, flooded pots; 14 days after application; read-out: weed inhibition rate
Procedure, shortened: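 Formulated compound, diluted in water, was dropped onto flooded pots seven days post-sowing at 7.5 g a.i. per 10 ares. Seeds had been sown 0-1 cm deep in puddled paddy soil under ~3 cm water in a glass greenhouse. Inhibition (%) assessed at 14 days; duplicate pots.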

[2] = test system: Echinochloa crus-galli var. formosensis; experiment: Test Example 5: herbicidal effect test by soil application in paddy rice (low dose); conditions: Echinochloa crus-galli, soil, 336 h; 7.5 g per 10 ares; applied immediately after sowing, flooded pots; 14 days after application; read-out: weed inhibition rate
Procedure, shortened: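 Dose of 7.5 g a.i. per 10 ares, applied by dropper as diluted emulsifiable concentrate to flooded (~3 cm) paddy pots immediately after sowing seeds at 0–1 cm. Kept in a glass greenhouse; duplicate pots rated at 14 days post-application.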

Echinochloa crus-galli [3] = experiment: Test Example 4: herbicidal effect test by stem and leaf treatment in upland field; conditions: Echinochloa crus-galli; 120 g per 10 ares; sprayed seven days after sowing, upland soil; 14 days after application; read-out: weed inhibition rate
Echinochloa crus-galli [4] = experiment: Test Example 7: herbicidal effect test by soil application in upland field (low dose); conditions: Echinochloa crus-galli, 7.5 g per 10 ares, sprayed one day after sowing, 14 days after application, read-out: weed inhibition rate
Procedure, shortened: (§1)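 Pre-emergence soil treatment: 7.5 g a.i. per 10 a applied as water-diluted emulsifiable concentrate (100 L/10 a) to soil surface one day post-sowing in alluvial loam. Inhibition (%) assessed at 14 days, duplicate pots per concentration.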

Digitaria ciliaris [5] = experiment: as above; conditions: Digitaria ciliaris, 7.5 g per 10 ares, sprayed one day after sowing, 14 days after application, read-out: weed inhibition rate
Procedure, shortened: as §1

Digitaria ciliaris [6] = experiment: Test Example 4: herbicidal effect test by stem and leaf treatment in upland field; conditions: Digitaria ciliaris; 120 g per 10 ares; sprayed seven days after sowing, upland soil; 14 days after application; read-out: weed inhibition rate
Echinochloa crus-galli [7] = experiment: Test Example 8: herbicidal effect test by stem and leaf treatment in upland field (low dose); conditions: Echinochloa crus-galli; 7.5 g per 10 ares; sprayed seven days after sowing, upland soil; 14 days after application; read-out: weed inhibition rate
Digitaria ciliaris [8] = experiment: as above; conditions: Digitaria ciliaris; 7.5 g per 10 ares; sprayed seven days after sowing, upland soil; 14 days after application; read-out: weed inhibition rate
Scirpus juncoides [9] = experiment: Test Example 1: herbicidal effect test by soil application in paddy rice; conditions: Schoenoplectiella juncoides, soil, 336 h; 120 g active ingredient per 10 ares; applied immediately after sowing, flooded pots; 14 days after application; read-out: weed inhibition rate
Procedure, shortened: (§2)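 Pre-emergence paddy treatment: diluted emulsifiable concentrate applied by dropper at 120 g a.i./10 ares immediately after sowing. Seeds (30 per species, 0–1 cm deep) in fertilized, puddled paddy soil kept under ~3 cm flood in a glass greenhouse.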

[10] = test system: Echinochloa crus-galli var. formosensis; experiment: as above; conditions: Echinochloa crus-galli, soil, 336 h; 120 g active ingredient per 10 ares; applied immediately after sowing, flooded pots; 14 days after application; read-out: weed inhibition rate
Procedure, shortened: as §2

Scirpus juncoides [11] = experiment: Test Example 2: herbicidal effect test by application during growth period of paddy rice; conditions: Schoenoplectiella juncoides; 120 g per 10 ares; applied seven days after sowing, flooded pots; 14 days after application; read-out: weed inhibition rate
Procedure, shortened: (§3)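 Herbicidal effect was scored 14 days after treatment, in duplicate per concentration. Weeds sown 0–1 cm deep in puddled, fertilized paddy soil under about 3 cm of standing water received a water-diluted emulsifiable concentrate by dropper 7 days post-sowing, at 120 g a.i. per 10 ares.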

[12] = test system: Echinochloa crus-galli var. formosensis; experiment: as above; conditions: Echinochloa crus-galli; 120 g per 10 ares; applied seven days after sowing, flooded pots; 14 days after application; read-out: weed inhibition rate
Procedure, shortened: as §3

Echinochloa crus-galli [13] = experiment: Test Example 3: herbicidal effect test by soil application in upland field; conditions: Echinochloa crus-galli, 120 g per 10 ares, sprayed one day after sowing, 14 days after application, read-out: weed inhibition rate
Procedure, shortened: (§4)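 Weed inhibition (%) was assessed 14 days after treatment, in duplicate per concentration group. Seeds had been mixed into the upper 1 cm of upland alluvial loam, and the soil surface was sprayed one day later with the diluted emulsifiable concentrate at 120 g active ingredient per 10 ares.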

Digitaria ciliaris [14] = experiment: as above; conditions: Digitaria ciliaris, 120 g per 10 ares, sprayed one day after sowing, 14 days after application, read-out: weed inhibition rate
Procedure, shortened: as §4

CC(C)C12CC(OCc3c(Cl)cccc3Cl)C(C)(CC1I)O2 (stereo not shown) [1-1447, 5-[(2,6-dichlorophenyl)methoxy]-2-iodo-1-isopropyl-4-methyl-7-oxabicyclo[2.2.1]heptane]
≥ 80%: inhibition at 75 g/ha [1] | inhibition at 75 g/ha [2] | inhibition at 1200 g/ha (Echinochloa crus-galli [3]) | inhibition at 75 g/ha (Echinochloa crus-galli [4]) | inhibition at 75 g/ha (Digitaria ciliaris [5]) | inhibition at 1200 g/ha (Digitaria ciliaris [6]) | inhibition at 75 g/ha (Echinochloa crus-galli [7]) | inhibition at 75 g/ha (Digitaria ciliaris [8]) | pest or weed control at 1200 g/ha (Scirpus juncoides [9]) | pest or weed control at 1200 g/ha [10] | inhibition at 1200 g/ha (Scirpus juncoides [11]) | inhibition at 1200 g/ha [12] | inhibition at 1200 g/ha (Echinochloa crus-galli [13]) | inhibition at 1200 g/ha (Digitaria ciliaris [14])

CC(C)C12CC(OCc3c(F)cccc3Cl)C(C)(CC1I)O2 (stereo not shown) [1-1448, 5-[(2-chloro-6-fluoro-phenyl)methoxy]-2-iodo-1-isopropyl-4-methyl-7-oxabicyclo[2.2.1]heptane]
≥ 80%: inhibition at 75 g/ha [1] | inhibition at 75 g/ha [2] | inhibition at 1200 g/ha (Echinochloa crus-galli [3]) | inhibition at 75 g/ha (Echinochloa crus-galli [4]) | inhibition at 75 g/ha (Digitaria ciliaris [5]) | inhibition at 1200 g/ha (Digitaria ciliaris [6]) | inhibition at 75 g/ha (Echinochloa crus-galli [7]) | inhibition at 75 g/ha (Digitaria ciliaris [8]) | pest or weed control at 1200 g/ha (Scirpus juncoides [9]) | pest or weed control at 1200 g/ha [10] | inhibition at 1200 g/ha (Scirpus juncoides [11]) | inhibition at 1200 g/ha [12] | inhibition at 1200 g/ha (Echinochloa crus-galli [13]) | inhibition at 1200 g/ha (Digitaria ciliaris [14])

CC(C)C12CC(OCc3cccs3)C(C)(CC1I)O2 (stereo not shown) [1-1456, 2-iodo-1-isopropyl-4-methyl-5-(2-thienylmethoxy)-7-oxabicyclo[2.2.1]heptane]
≥ 80%: inhibition at 75 g/ha [1] | inhibition at 75 g/ha [2] | inhibition at 1200 g/ha (Echinochloa crus-galli [3]) | inhibition at 75 g/ha (Echinochloa crus-galli [4]) | inhibition at 75 g/ha (Digitaria ciliaris [5]) | inhibition at 1200 g/ha (Digitaria ciliaris [6]) | inhibition at 75 g/ha (Echinochloa crus-galli [7]) | inhibition at 75 g/ha (Digitaria ciliaris [8]) | pest or weed control at 1200 g/ha (Scirpus juncoides [9]) | pest or weed control at 1200 g/ha [10] | inhibition at 1200 g/ha (Scirpus juncoides [11]) | inhibition at 1200 g/ha [12] | inhibition at 1200 g/ha (Echinochloa crus-galli [13]) | inhibition at 1200 g/ha (Digitaria ciliaris [14])

CC(C)C12CC(OCc3ccsc3)C(C)(CC1I)O2 (stereo not shown) [1-1457, 2-iodo-1-isopropyl-4-methyl-5-(3-thienylmethoxy)-7-oxabicyclo[2.2.1]heptane]
≥ 80%: inhibition at 75 g/ha [1] | inhibition at 75 g/ha [2] | inhibition at 1200 g/ha (Echinochloa crus-galli [3]) | inhibition at 75 g/ha (Echinochloa crus-galli [4]) | inhibition at 75 g/ha (Digitaria ciliaris [5]) | inhibition at 1200 g/ha (Digitaria ciliaris [6]) | inhibition at 75 g/ha (Echinochloa crus-galli [7]) | inhibition at 75 g/ha (Digitaria ciliaris [8]) | pest or weed control at 1200 g/ha (Scirpus juncoides [9]) | pest or weed control at 1200 g/ha [10] | inhibition at 1200 g/ha (Scirpus juncoides [11]) | inhibition at 1200 g/ha [12] | inhibition at 1200 g/ha (Echinochloa crus-galli [13]) | inhibition at 1200 g/ha (Digitaria ciliaris [14])

Cc1cccc(C)c1COC1CC2(C(C)C)OC1(C)CC2Cl (stereo not shown) [1-1610, 5-chloro-2-[(2,6-dimethylphenyl)methoxy]-1-methyl-4-isopropyl-7-oxabicyclo[2.2.1]heptane]
≥ 80%: inhibition at 75 g/ha [1] | inhibition at 75 g/ha [2] | inhibition at 1200 g/ha (Echinochloa crus-galli [3]) | inhibition at 75 g/ha (Echinochloa crus-galli [4]) | inhibition at 75 g/ha (Digitaria ciliaris [5]) | inhibition at 1200 g/ha (Digitaria ciliaris [6]) | inhibition at 75 g/ha (Echinochloa crus-galli [7]) | inhibition at 75 g/ha (Digitaria ciliaris [8]) | pest or weed control at 1200 g/ha (Scirpus juncoides [9]) | pest or weed control at 1200 g/ha [10] | inhibition at 1200 g/ha (Scirpus juncoides [11]) | inhibition at 1200 g/ha [12] | inhibition at 1200 g/ha (Echinochloa crus-galli [13]) | inhibition at 1200 g/ha (Digitaria ciliaris [14])

— EP4707280A1, “1,4-CINEOLE DERIVATIVE AND INTERMEDIATE THEREOF, HERBICIDE CONTAINING SAID DERIVATIVE AS ACTIVE INGREDIENT, METHOD FOR USING HERBICIDE, AND METHOD FOR PREPARING AGROCHEMICAL COMPOSITION” (HOKKO CHEMICAL INDUSTRY CO., LTD., priority 2023, dated 2024)
